# Data reported in patent publication US20210330611A1, “THERAPY FOR NEUROLOGICAL DISEASES/DISORDERS” (priority 2020, published 2021).
# Like-named read-outs stand apart in the source and are kept apart here.
# Experiments:
# [1] = test system: fibrin-induced microglia activation; experiment: Image-based assay of fibrin-induced microglia activation (HTS and dose response); type: cell-based, rat; settings: for inhibition at 10 µM: read-out: Fibrin % inhibition
# [2] = test system: LPS-induced microglia activation; experiment: Image-based assay of LPS-induced microglia activation (HTS and dose response); type: cell-based, rat; settings: for inhibition at 10 µM: read-out: LPS % inhibition
# [3] = test system: fibrin- and LPS-induced microglia activation; experiment: cells; type: cell-based, rat
# primary rat microglia [4] = experiment: Cell toxicity (dead cells, size <150 μm2) in LPS assay; settings: primary microglia HTS
# primary rat microglia [5] = experiment: Cell toxicity (dead cells, size <150 μm2) in coated fibrin (cFib) assay; settings: primary microglia HTS;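 also: share of dead cells sized under 150 µm2 at 10 µM in fibrin-stimulated microglia HTS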
# [6] = Rattus norvegicus, Microglia, primary microglia HTS, fibrin stimulation, increased cell size (>800 μm^2) as marker of activation
# [7] = Rattus norvegicus, Microglia, 48 h, primary microglia HTS, LPS stimulation, increased cell size (>800 μm^2) as marker of activation
# [8] = quadrant by fibrin and LPS inhibition in HTS of 1907 compounds
# [9] = LPS stimulation, decreased size (<150 μm^2) as marker of toxicity
# [10] = fibrin stimulation, decreased size (<150 μm^2) as marker of toxicity
# [11] = Rattus norvegicus, Microglia, primary microglia HTS, 10 μM, fibrin-stimulated, cell size >800 μm^2 as marker of activation
# [12] = Rattus norvegicus, Microglia, primary microglia HTS, 10 μM, LPS-stimulated, cell size >800 μm^2 as marker of activation
# [13] = HTS of 1907 compounds, quadrant by fibrin and LPS inhibition
# [14] = 10 μM, LPS assay, cell size <150 μm^2 as marker of toxicity
# [15] = 10 μM, fibrin assay, cell size <150 μm^2 as marker of toxicity
SMILES,"inhibition at 10 µM [1, 11]","inhibition at 10 µM [2, 12]","Quadrant (FIG. 5b) [3, 13]",LPS % cell toxicity (primary rat microglia [4]; [14]),Fibrin % cell toxicity (primary rat microglia [5]; [15]),also measured
"CC(=O)OCC(=O)[C@@]1(O)CC[C@H]2[C@@H]3CCC4=CC(=O)C=C[C@]4(C)[C@H]3[C@@H](O)C[C@@]21C [Prednisolone acetate, reference compound]",–,–,–,–,–,"IC50 ([1]; Rattus norvegicus, Microglia, Table 7, read-out: fib_IC50): 3 nM; inhibition at 10 µM [1, 6]: 109%; inhibition at 10 µM [2, 7]: 111%; IC50 ([2]; Rattus norvegicus, Microglia, Table 7, read-out: LPS_IC50): 3 nM; Quadrant (FIG. 5b) ([3]; Table 2, screen at 10 μM): Q2; Activity ([3]; Table 7, fib = fibrin, LPS, tox = toxicity): fib/LPS; Quadrant (FIG. 5b) [3, 8]: Q2; LPS % cell toxicity (primary rat microglia [4]; [9]): 6%; Fibrin % cell toxicity (primary rat microglia [5]; [10]): 4%"
CN(C)CCCN1c2ccccc2Sc2ccccc21 [Promazine],–,–,–,–,–,"inhibition at 10 µM [1, 6]: 46%; inhibition at 10 µM [2, 7]: 117%; Quadrant (FIG. 5b) [3, 8]: Q1; LPS % cell toxicity (primary rat microglia [4]; [9]): 64%; Fibrin % cell toxicity (primary rat microglia [5]; [10]): 1%"
C[C@]12Cc3c[nH]nc3C[C@@H]1CC[C@@H]1[C@@H]2CC[C@@]2(C)[C@H]1CC[C@]2(C)O [Stanozolol],-5%,33%,Q4,1%,1%,–
Cc1cn([C@H]2C=C[C@@H](CO)O2)c(=O)[nH]c1=O [Stavudine],-17%,19%,Q4,0%,1%,–
O=C(O)[C@@H](S)[C@@H](S)C(=O)O [Succimer],-37%,-5%,Q4,0%,0%,–
C[N+](C)(C)CCOC(=O)CCC(=O)OCC[N+](C)(C)C [Succinylcholine],-54%,-5%,Q4,0%,1%,–
O=C(O)CCC(=O)Nc1ccc(S(=O)(=O)Nc2nccs2)cc1 [Succinylsulfathiazole],15%,16%,Q4,1%,1%,–
OC[C@H]1O[C@H](O[C@]2(CCl)O[C@H](CCl)[C@@H](O)[C@@H]2O)[C@H](O)[C@@H](O)[C@H]1Cl [Sucralose],0%,16%,Q4,0%,1%,–
S=C1SCN(Cc2ccccc2)CN1Cc1ccccc1 [Sulbentine],48%,13%,Q4,0%,1%,–
Nc1ccc(S(=O)(=O)NC(=O)c2ccccc2)cc1 [Sulfabenzamide],-15%,19%,Q4,1%,1%,–
NC(=O)NS(=O)(=O)c1ccc(N)cc1 [Sulfacarbamide],45%,46%,Q4,0%,1%,–
CC(=O)NS(=O)(=O)c1ccc(N)cc1 [Sulfacetamide],-2%,10%,Q4,0%,1%,–
Nc1ccc(S(=O)(=O)Nc2ccc(Cl)nn2)cc1 [Sulfachlorpyridazine],18%,14%,Q4,0%,1%,–
COc1cc(NS(=O)(=O)c2ccc(N)cc2)nc(OC)n1 [Sulfadimethoxine],42%,13%,Q4,0%,1%,–
COc1ncnc(NS(=O)(=O)c2ccc(N)cc2)c1OC [Sulfadoxine],-12%,3%,Q4,0%,1%,–
[H]/N=C(/N)NS(=O)(=O)c1ccc(N)cc1 [Sulfaguanidine],-23%,12%,Q4,0%,1%,–
Cc1ccnc(NS(=O)(=O)c2ccc(N)cc2)n1 [Sulfamerazine],-2%,12%,Q4,0%,1%,–
COc1cnc(NS(=O)(=O)c2ccc(N)cc2)nc1 [Sulfameter],4%,11%,Q4,0%,1%,–
Cc1nnc(NS(=O)(=O)c2ccc(N)cc2)s1 [Sulfamethizole],-3%,16%,Q4,0%,1%,–
COc1ccc(NS(=O)(=O)c2ccc(N)cc2)nn1 [Sulfamethoxypyridazine],21%,15%,Q4,0%,1%,–
COc1cc(NS(=O)(=O)c2ccc(N)cc2)ncn1 [Sulfamonomethoxine],38%,19%,Q4,1%,1%,–
CC(=O)Nc1ccc(S(=O)(=O)Nc2ccc([N+](=O)[O-])cc2)cc1 [Sulfanitran],10%,18%,Q4,0%,1%,–
Nc1ccc(S(=O)(=O)Nc2ccnn2-c2ccccc2)cc1 [Sulfaphenazole],-4%,14%,Q4,0%,1%,–
O=C1C(CC[S+]([O-])c2ccccc2)C(=O)N(c2ccccc2)N1c1ccccc1 (centres unmarked) [Sulfinpyrazone],-6%,13%,Q4,1%,1%,–
CC(=O)N(c1onc(C)c1C)S(=O)(=O)c1ccc(N)cc1 [Sulfisoxazole Acetyl],-3%,17%,Q4,1%,1%,–
Cc1noc(NS(=O)(=O)c2ccc(N)cc2)c1C [Sulfisoxazole],-11%,6%,Q4,0%,0%,–
CC1=C(CC(=O)O)c2cc(F)ccc2/C1=C\c1ccc(S(C)(=O)=O)cc1 [Sulindac Sulfone],–,–,Q4,0%,1%,"Fibrin % inhibition ([1]; primary microglia HTS, 10 μM, fibrin-stimulated, cell size >800 μm^2 as marker of activation): −27%; LPS % inhibition ([2]; primary microglia HTS, 10 μM, LPS-stimulated, cell size >800 μm^2 as marker of activation): 3%"
COc1cc(O)c(C(=O)c2ccccc2)cc1S(=O)(=O)O [Sulisobenzone],-19%,-2%,Q4,0%,0%,–
CNS(=O)(=O)Cc1ccc2[nH]cc(CCN(C)C)c2c1 [Sumatriptan],-7%,8%,Q4,0%,1%,–
